For 33 compounds, Activity results are on record in US11136313B2, “Compounds, compositions, and methods for modulating CFTR” (Proteostasis Therapeutics, Inc., priority 2015, dated 2021).

The target of the test is T1, ΔF508-CFTR (Homo sapiens, UniProt P13569, DEL508-508).
T1 construct: Primary lung epithelial cells homozygous for the Cystic Fibrosis-causing ΔF508 mutation were differentiated for a minimum of 4 weeks; endogenous in cells; host or cells: primary lung epithelial cells (hBE) homozygous for ΔF508, differentiated at an air-liquid interface
Nature of the test: hBE equivalent current (Ieq) assay: AUC of equivalent chloride current after forskolin/VX-770 in primary lung epithelial cells homozygous for ΔF508. The class given is cell-based. Particulars: relative to CFTR amplifier (Compound A)+VX-809 (3 uM), compound at 10 uM and Compound A at 3 uM, 24 h treatment. The essentials: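 Readout is the increase over vehicle in equivalent chloride current AUC from forskolin/VX-770 addition to bumetanide, measured by current clamp at 36 °C after benzamil block of ENaC. Cultures were homozygous ΔF508 primary lung epithelium grown ≥4 weeks at air-liquid interface and exposed basolaterally to compound for 24 h.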

T1 sequence (P13569 with tags, fused parts or gaps DEL508-508): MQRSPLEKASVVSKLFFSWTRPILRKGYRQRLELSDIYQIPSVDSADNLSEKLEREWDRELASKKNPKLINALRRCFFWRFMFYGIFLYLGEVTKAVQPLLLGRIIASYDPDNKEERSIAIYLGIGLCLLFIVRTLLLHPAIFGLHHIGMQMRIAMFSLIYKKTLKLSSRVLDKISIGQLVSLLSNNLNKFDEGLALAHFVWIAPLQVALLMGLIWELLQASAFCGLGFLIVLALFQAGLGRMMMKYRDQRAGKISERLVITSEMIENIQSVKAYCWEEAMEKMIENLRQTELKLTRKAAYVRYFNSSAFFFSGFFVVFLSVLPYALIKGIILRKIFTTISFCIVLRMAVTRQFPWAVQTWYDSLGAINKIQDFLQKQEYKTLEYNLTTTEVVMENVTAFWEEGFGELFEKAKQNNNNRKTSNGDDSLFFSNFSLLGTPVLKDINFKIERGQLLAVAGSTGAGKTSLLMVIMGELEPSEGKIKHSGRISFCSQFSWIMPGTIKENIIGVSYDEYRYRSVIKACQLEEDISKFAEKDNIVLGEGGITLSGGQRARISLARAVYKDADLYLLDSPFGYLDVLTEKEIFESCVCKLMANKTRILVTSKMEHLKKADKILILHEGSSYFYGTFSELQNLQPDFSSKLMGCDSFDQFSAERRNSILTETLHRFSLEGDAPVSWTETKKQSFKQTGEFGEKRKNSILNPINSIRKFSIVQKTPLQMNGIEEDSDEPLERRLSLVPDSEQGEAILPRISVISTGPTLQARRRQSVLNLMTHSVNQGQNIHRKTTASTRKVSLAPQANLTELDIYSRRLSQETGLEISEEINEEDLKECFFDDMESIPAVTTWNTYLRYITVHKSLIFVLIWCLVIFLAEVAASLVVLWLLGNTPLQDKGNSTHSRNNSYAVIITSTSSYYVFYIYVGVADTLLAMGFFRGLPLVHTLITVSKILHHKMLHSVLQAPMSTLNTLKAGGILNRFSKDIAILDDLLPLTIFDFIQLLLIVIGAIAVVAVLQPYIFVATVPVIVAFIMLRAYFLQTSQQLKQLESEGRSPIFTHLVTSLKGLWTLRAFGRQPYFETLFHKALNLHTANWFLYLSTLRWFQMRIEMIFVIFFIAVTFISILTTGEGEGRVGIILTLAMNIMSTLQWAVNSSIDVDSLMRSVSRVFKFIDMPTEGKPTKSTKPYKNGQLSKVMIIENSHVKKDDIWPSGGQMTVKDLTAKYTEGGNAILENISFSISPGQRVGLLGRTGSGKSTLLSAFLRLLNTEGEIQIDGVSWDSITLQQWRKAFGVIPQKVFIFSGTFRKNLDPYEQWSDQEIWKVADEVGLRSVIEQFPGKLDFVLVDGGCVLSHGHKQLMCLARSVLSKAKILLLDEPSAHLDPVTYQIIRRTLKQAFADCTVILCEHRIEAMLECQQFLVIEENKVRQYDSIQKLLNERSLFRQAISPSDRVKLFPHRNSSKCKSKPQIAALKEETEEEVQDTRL

For the compound `CCc1ccc(O[C@H]2CCC[C@@H](C)C2)c2c(C(=O)[O-])cc(-c3sc4ccccc4c3C)nc12.[Na+]` [Compound 215, Sodium 8-Ethyl-2-(3-methyl-1-benzothiophen-2-yl)-5-[[(1S,3R)-3-methylcyclohexyl]oxy]quinoline-4-carboxylate], the Activity result is “++ (activity>50% of CFTR amplifier+VX-809 (3 uM) with compound at 10 uM and Compound A at 3 uM)”.
Turning to `Cc1ccc(C)c2c(C(=O)O)cc(-c3oc4ccccc4c3Br)nc12` [Compound 39, 2-(3-Bromo-1-benzofuran-2-yl)-5,8-dimethylquinoline-4-carboxylic acid], the Activity entry was “+ (activity<50% of an CFTR amplifier (Compound A)+VX-809 (3 uM) with compound at 10 uM and Compound A at 3 uM)”.
With `Cc1c(-c2cc(C(=O)[O-])c3c(OCc4c(F)cccc4F)ccc(C)c3n2)sc2ccccc12.[Na+]` [Compound 294, Sodium 5-[(2,6-Difluorophenyl)methoxy]-8-methyl-2-(3-methyl-1-benzothiophen-2-yl)quinoline-4-carboxylate], the Activity entry is “++ (activity>50% of CFTR amplifier+VX-809 (3 uM) with compound at 10 uM and Compound A at 3 uM)”.
For `Cc1c(-c2cc(C(=O)O)c3c(OC(F)(F)F)ccc(C)c3n2)oc2ccccc12` [Compound 121, 8-Methyl-2-(3-methyl-1-benzofuran-2-yl)-5-(trifluoromethoxy)quinoline-4-carboxylic acid] the value was “+ (activity<50% of an CFTR amplifier (Compound A)+VX-809 (3 uM) with compound at 10 uM and Compound A at 3 uM)”.
For `CCc1ccc(OC2CCCCC2)c2c(C(=O)O)cc(-c3csc4ccccc34)nc12` [Compound 159, 2-(1-Benzothiophen-3-yl)-5-(cyclohexyloxy)-8-ethylquinoline-4-carboxylic acid] the value was “++ (activity>50% of CFTR amplifier+VX-809 (3 uM) with compound at 10 uM and Compound A at 3 uM)”; for `Cc1c(-c2cc(C(=O)[O-])c3c(O[C@@H](CO)c4ccccc4)ccc(C)c3n2)sc2ccccc12.[Na+]` [Compound 306], “++ (activity>50% of CFTR amplifier+VX-809 (3 uM) with compound at 10 uM and Compound A at 3 uM)”; for `Cc1c(-c2cc(C(=O)[O-])c3c(O[C@H]4CCc5ccccc5C4)ccc(C)c3n2)oc2ccccc12.[Na+]` [Compound 253], “++ (activity>50% of CFTR amplifier+VX-809 (3 uM) with compound at 10 uM and Compound A at 3 uM)”.
With `Cc1c(-c2cc(C(=O)O)c3c(OC4CC(c5ccccc5)C4)ccc(C)c3n2)oc2ccccc12` (stereo not drawn) [Compound 75, 8-Methyl-2-(3-methyl-1-benzofuran-2-yl)-5-(3-phenylcyclobutoxy)quinoline-4-carboxylic acid] the entry was “++ (activity>50% of CFTR amplifier+VX-809 (3 uM) with compound at 10 uM and Compound A at 3 uM)”; with `Cc1ccc(OC(C)c2ccccc2)c2c(C(=O)[O-])cc(-c3nc4ccccc4n3C)nc12.[Na+]` (stereo not drawn) [Compound 407], “+ (activity<50% of an CFTR amplifier (Compound A)+VX-809 (3 uM) with compound at 10 uM and Compound A at 3 uM)”.
For the compound `Cc1c(-c2cc(C(=O)[O-])c3c(OCC4CCC4)ccc(C)c3n2)sc2ccccc12.[Na+]` [Compound 319], the Activity entry is “++ (activity>50% of CFTR amplifier+VX-809 (3 uM) with compound at 10 uM and Compound A at 3 uM)”.
For `CCc1ccc(OC2CCCCC2)c2c(C(=O)O)cc(-c3c(C)oc4ccccc34)nc12` [Compound 176] the value was “++ (activity>50% of CFTR amplifier+VX-809 (3 uM) with compound at 10 uM and Compound A at 3 uM)”.
With `Cc1cc(C)c2nc(-c3nc4ccccc4o3)cc(C(=O)O)c2c1` [Compound 3, 2-(1,3-Benzoxazol-2-yl)-6,8-dimethylquinoline-4-carboxylic acid], the Activity result was “+ (activity<50% of an CFTR amplifier (Compound A)+VX-809 (3 uM) with compound at 10 uM and Compound A at 3 uM)”.
For the compound `Cc1c(-c2cc(C(=O)O)c3c(OC4CCCCC4)ccc(C)c3n2)oc2ccccc12` [Compound 79, 5-(Cyclohexyloxy)-8-methyl-2-(3-methyl-1-benzofuran-2-yl)quinoline-4-carboxylic acid], the Activity entry is “++ (activity>50% of CFTR amplifier+VX-809 (3 uM) with compound at 10 uM and Compound A at 3 uM)”.
With `Cc1c(-c2cc(C(=O)O)c3c(O[C@H]4CC[C@H](c5ncco5)CC4)ccc(C)c3n2)oc2ccccc12` [Compound 197] the entry was “++ (activity>50% of CFTR amplifier+VX-809 (3 uM) with compound at 10 uM and Compound A at 3 uM)”; with `Cc1c(-c2cc(C(=O)[O-])c3c(OC[C@H]4C[C@H]5CC[C@@H](C4)O5)ccc(C)c3n2)oc2ccccc12.[Na+]` [Compound 357], “++ (activity>50% of CFTR amplifier+VX-809 (3 uM) with compound at 10 uM and Compound A at 3 uM)”; with `Cc1c(-c2cc(C(=O)[O-])c3c(O[C@@H]4C[C@H]5CC[C@@H](C4)O5)ccc(C)c3n2)oc2ccccc12.[Na+]` [Compound 354], “++ (activity>50% of CFTR amplifier+VX-809 (3 uM) with compound at 10 uM and Compound A at 3 uM)”.
For the compound `Cc1c(-c2cc(C(=O)[O-])c3c(OC[C@H]4C[C@](C)(O)C4)ccc(C)c3n2)sc2ccccc12.[Na+]` [Compound 321], the Activity result is “++ (activity>50% of CFTR amplifier+VX-809 (3 uM) with compound at 10 uM and Compound A at 3 uM)”.
With `CCc1ccc(O[C@H]2CCC[C@@H](C)C2)c2c(C(=O)O)cc(-c3csc4ccccc34)nc12` [Compound 181, 2-(1-Benzothiophen-3-yl)-8-ethyl-5-[[(1S,3R)-3-methylcyclohexyl]oxy]quinoline-4-carboxylic Acid] the entry was “++ (activity>50% of CFTR amplifier+VX-809 (3 uM) with compound at 10 uM and Compound A at 3 uM)”; with `Cc1cc(C)c2nc(-c3csc4ccccc34)cc(C(=O)O)c2c1` [Compound 8, 2-(1-Benzothiophen-3-yl)-6,8-dimethylquinoline-4-carboxylic acid], “+ (activity<50% of an CFTR amplifier (Compound A)+VX-809 (3 uM) with compound at 10 uM and Compound A at 3 uM)”; with `Cc1ccc(O[C@@H](C)c2ccccc2)c2c(C(=O)[O-])cc(-c3nc4ccccn4c3C)nc12.[Na+]` [Compound 201], “++ (activity>50% of CFTR amplifier+VX-809 (3 uM) with compound at 10 uM and Compound A at 3 uM)”.
Regarding `Cc1c(-c2cc(C(=O)[O-])c3c(OCC4CCC5(CC4)COC5)ccc(C)c3n2)sc2ccccc12.[Na+]` [Compound 384], the Activity entry is “++ (activity>50% of CFTR amplifier+VX-809 (3 uM) with compound at 10 uM and Compound A at 3 uM)”.
Take `CCc1ccc(OCc2ccccc2)c2c(C(=O)O)cc(-c3c(C)oc4ccccc34)nc12` [Compound 175]: the Activity entry is “++ (activity>50% of CFTR amplifier+VX-809 (3 uM) with compound at 10 uM and Compound A at 3 uM)”.
With `Cc1ccccc1COc1ccc(C)c2nc(-c3sc4ccccc4c3C)cc(C(=O)[O-])c12.[Na+]` [Compound 303] the entry was “++ (activity>50% of CFTR amplifier+VX-809 (3 uM) with compound at 10 uM and Compound A at 3 uM)”.
For `CCc1ccc(O[C@H](C)c2ccccc2)c2c(C(=O)O)cc(-c3csc4ccccc34)nc12` [Compound 165] the value was “++ (activity>50% of CFTR amplifier+VX-809 (3 uM) with compound at 10 uM and Compound A at 3 uM)”.
For `Cc1c(-c2cc(C(=O)[O-])c3c(OC4CCOCC4)ccc(C)c3n2)sc2ccccc12.[Na+]` [Compound 331] the value was “++ (activity>50% of CFTR amplifier+VX-809 (3 uM) with compound at 10 uM and Compound A at 3 uM)”.
Take `Cc1c(-c2cc(C(=O)[O-])c3c(OCC4CC(C)(C)OC(C)(C)C4)ccc(C)c3n2)oc2ccccc12.[Na+]` [Compound 338]: the Activity result is “++ (activity>50% of CFTR amplifier+VX-809 (3 uM) with compound at 10 uM and Compound A at 3 uM)”.
For `Cc1c(-c2cc(C(=O)[O-])c3c(O[C@H]4C[C@H](C)C[C@H](C)C4)ccc(C)c3n2)sc2ccccc12.[Na+]` [Compound 314] the value was “++ (activity>50% of CFTR amplifier+VX-809 (3 uM) with compound at 10 uM and Compound A at 3 uM)”.
As for `Cc1cc(C)c2nc(-c3nc4ccccc4s3)cc(C(=O)O)c2c1` [Compound 2, 2-(1,3-Benzothiazol-2-yl)-6,8-dimethylquinoline-4-carboxylic Acid], the Activity entry is “+ (activity<50% of an CFTR amplifier (Compound A)+VX-809 (3 uM) with compound at 10 uM and Compound A at 3 uM)”.
For `Cc1c(-c2cc(C(=O)O)c3c(OC4CCCC(c5ccccc5)C4)ccc(C)c3n2)oc2ccccc12` (stereo not drawn) [Compound 77, 8-Methyl-2-(3-methyl-1-benzofuran-2-yl)-5-[(3-phenylcyclohexyl)oxy]quinoline-4-carboxylic acid] the value was “++ (activity>50% of CFTR amplifier+VX-809 (3 uM) with compound at 10 uM and Compound A at 3 uM)”.
`Cc1cc(C)c2nc(-c3sc4ccccc4c3C)cc(C(=O)O)c2c1` [Compound 18, 6,8-Dimethyl-2-(3-methylbenzo[b]thiophen-2-yl)quinoline-4-carboxylic acid]: the Activity entry was “+ (activity<50% of an CFTR amplifier (Compound A)+VX-809 (3 uM) with compound at 10 uM and Compound A at 3 uM)”.
Turning to `Cc1c(-c2cc(C(=O)O)c3c(OC4CCCc5ccccc54)ccc(C)c3n2)oc2ccccc12` (stereo not drawn) [Compound 335], the Activity entry is “++ (activity>50% of CFTR amplifier+VX-809 (3 uM) with compound at 10 uM and Compound A at 3 uM)”.
For `Cc1c(-c2cc(-c3cc(O)[nH]n3)c3c(O[C@H](C)c4ccccc4)ccc(C)c3n2)oc2ccccc12` [Compound 274] the value was “+ (activity<50% of an CFTR amplifier (Compound A)+VX-809 (3 uM) with compound at 10 uM and Compound A at 3 uM)”; for `CO[C@]1(C)C[C@H](COc2ccc(C)c3nc(-c4sc5ccccc5c4C)cc(C(=O)[O-])c23)C1.[Na+]` [Compound 324], “++ (activity>50% of CFTR amplifier+VX-809 (3 uM) with compound at 10 uM and Compound A at 3 uM)”.
